Source: patent EP2935252B1, “NOVEL BIS-CHROMONE DERIVATIVES, METHODS FOR THEIR PREPARATION AND USES THEREOF” (Rijksuniversiteit te Groningen, priority 2012, dated 2014)

Legend:
LAD2 mast cell line = experiment: β-hexosaminidase release assay: inhibition of Compound 48/80-evoked mast cell degranulation; format: cell-based, human; details: for IC50: LAD2 cells; for efficacy: concentration response curves, Fig. 3, Compound 48/80 1.0 µM; for change in inhibitory activity after photoisomerization: non-irradiated vs 365 nm irradiated; for potency relative to DSCG: β-hexosaminidase release assays, Fig. 3
Experimental: LAD2 Cell culture The human mast cell line LAD2 was kindly provided by Dr. A. Kirshenbaum (National Institute of Allergy and Infectious Diseases, Bethesda, MD). LAD2 cells were cultured in suspension at 37 °C, 95% relative humidity and 5% CO2 in StemPro-34 Serum-free medium (Invitrogen) supplemented with 2 mM L-glutamine (Sigma Aldrich), 100 IU/mL penicillin (Sigma Aldrich), 100 µg/mL streptomycin (Sigma Aldrich) and 100 ng/ml rhSCF (Invitrogen). Cells were not allowed to grow beyond a density of 5.0 x 10^5 cells/mL and fresh medium was supplied once a week.
β-Hexosaminidase Assay β-Hexosaminidase release was measured according to a previously published method.^28 In short, 50 µL of supernatant was transferred to a 96-well plate. To this 100 µL of a 2 mg/mL solution of p-nitrophenyl- N-acetyl-D-glucosaminidine in citrate buffer pH 4.5 was added. The plate was incubated at 37 °C for 1 h. The reaction was stopped by adding 100 µL of 0.4 M glycine solution and the absorbance was measured on a plate reader at a wavelength of 405 nm. Subsequently, the percentage released β-hexosaminidase was determined by comparison with the absorption of cell lysate of the same cells using the following formula: (supernatant)/(supernatant + lysate) × 100% = % Reaased β−Hexosaminidase. [formula]
Inhibitory Activity Tests LAD2 cells were suspended in HEPES buffer at a concentration of 50,000 cells/mL. 80 µL of cell suspension was transferred to a microreaction cup to which 10 µL of inhibitor solution was added. This was incubated at 37 °C for 30 min after which 10 µL of a Compound 48/80 solution was added. Next, the cell suspension was incubated for 30 min at 37 °C and the β-hexosaminidase release was assayed.
MAC and PAC seem to have an almost 100 times greater inhibitory potency than DSCG.
Next, the difference in inhibitory activity between the two photoisomers of DAC, MAC and PAC was determined. The inhibitory activity was determined for each compound at two concentrations that were on the steep part of the concentration response curve, because at these concentrations a possible difference in inhibitory activity is best detectable. LAD2 cells were incubated with either non-irradiated solutions of DAC, MAC and PAC or with solutions that were irradiated with 365 nm light prior incubation. After evoking a degranulation with Compound 48/80, β-hexosaminidase release was determined.. […] At a concentration of 10 µM the relative difference in inhibitory activity between the two forms of PAC is 25% (see Figure 4).

[1] = Ratio of trans and cis photoisomers determined by RP-HPLC at the isosbestic point; format: physicochemical
Experimental: Photoswitching Experiments Irradiation experiments were performed with a Spectroline ENB-280C/FE UV lamp (365 nm) and Thor Labs OSL1-EC Fiber Illuminator (white light).
The photoswitchable behavior of DAC, MAC and PAC was studied using UV-VIS spectroscopy and RP-HPLC. The trans-isomers of DAC, MAC and PAC have a characteristic absorbance maximum between 300 and 400 nm in water. This absorbance maximum decreases when the molecules are photoswitched to their cis-isomers and a new absorbance maximum appears around 430 nm (Fig. 2A-C).^25 Isosbestic points at 405 nm (DAC), 270 nm (MAC) and 270 nm (PAC) clearly illustrate the selective isomerization and reversibility of the photoswitching process. Using RP-HPLC, the ratio of photoisomers was determined for both the non-irradiated and 365 nm-irradiated forms of DAC, MAC and PAC (Table 1). Higher photostationary states were obtained when the photoswitchable inhibitors were irradiated with 365 nm light in DMSO as compared to water (Table 1). Therefore, the compounds were switched at a high concentration in DMSO and diluted in water to obtain a maximum concentration of 1% DMSO (v/v). […]
Table 1 Ratio of trans and cis isomers of the photoswitchable inhibitors under different conditions. Ratios are determined at the isosbestic point (DAC=405 nm, MAC=270 nm, PAC=270 nm) with RP-HPLC (C18, flow 1 mL/min, MeCN and H3PO4pH=3.0).

[2] = Homo sapiens, light or radiation study, degranulation evoked by 1.0 µM Compound 48/80, non-irradiated inhibitors, 30 min pre-incubation, n=3

IC50 (LAD2 mast cell line; [2]) | cis isomer in the photo stationary state (PSS) ([1]; irradiated form (365 nm)) | trans isomer in the photo stationary state (PSS) ([1]; non-irradiated form) | SMILES | inhibitory activity (LAD2 mast cell line; Compound 48/80 1.0 µM) | efficacy (LAD2 mast cell line) | change in inhibitory activity after photoisomerization (LAD2 mast cell line) | potency relative to DSCG (LAD2 mast cell line) | inhibition at 10 µM (LAD2 mast cell line; Homo sapiens, LAD2, light or radiation study, concentration of 10 µM, non-irradiated form more active than irradiated form, read-out: relative difference in inhibitory activity between non-irradiated and 365 nm irradiated form) | IC50 (LAD2 mast cell line; degranulation evoked by 1.0 µM Compound 48/80, n=3) | inhibitory activity (LAD2 mast cell line; lower concentration of Compound 48/80 (0.1 µM), data not shown)
272 µM | – | – | O=C([O-])c1cc(=O)c2cc(/N=N/c3ccc4oc(C(=O)[O-])cc(=O)c4c3)ccc2o1.[Na+].[Na+] [DAC, Sodium (E)-6,6'-(diazene-1,2-diyl)bis(4-oxo-4H-chromene-2-carboxylate)] | significantly greater inhibitory activity than the original drug DSCG | greater efficacy than PAC | a significant change in inhibitory activity after photoisomerization was not observed | – | – | – | –
10 µM | – | – | O=C([O-])c1cc(=O)c2c(OCc3cccc(/N=N/c4cccc(COc5cccc6oc(C(=O)[O-])cc(=O)c56)c4)c3)cccc2o1.[Na+].[Na+] [MAC, Sodium (E)-5,5'-(((diazene-1,2-diylbis(3,1-phenylene))bis(methylene))bis(oxy))bis(4-oxo-4H-chromene-2-carboxylate)] | significantly greater inhibitory activity than the original drug DSCG | greater efficacy than PAC | – | ~100 times | – | – | –
28 µM | 81% | 91% | O=C([O-])c1cc(=O)c2c(OCc3ccc(/N=N/c4ccc(COc5cccc6oc(C(=O)[O-])cc(=O)c56)cc4)cc3)cccc2o1.[Na+].[Na+] [PAC, Sodium (E)-5,5'-(((diazene-1,2-diylbis(4,1-phenylene))bis(methylene))bis(oxy))bis(4-oxo-4H-chromene-2-carboxylate)] | significantly greater inhibitory activity than the original drug DSCG | – | A significant difference was observed | ~100 times | 25% | – | –
– | – | – | O=C([O-])c1cc(=O)c2c(OCC(O)COc3cccc4oc(C(=O)[O-])cc(=O)c34)cccc2o1.[Na+].[Na+] [DSCG, DiSodiumCromoGlycate, reference compound] | did not show any inhibitory activity | – | – | – | – | > 1000 µM | able to inhibit mast cell degranulation
